# Laboratory results reported in patent publication US10292958B2, “Lipid-containing compositions and methods of use thereof” (ASHA NUTRITION SCIENCES, INC., priority 2008, dated 2019).
# What was measured:
# [1] = test system: inflammation, immunity, infection; settings: menopausal person; 11 g LA; ALA reduced from 1.8 g to 1.2 g
# ovulation = experiment: Case study on ovulation, reproductive disorders; assay type: in vivo, human; settings: person
# Source text: In a host subject cessation of ovulation (as indicated by watery pale menstrual cycles), intense ovulation-related pains and anovulatry menstruation at extremely low omega-6 fatty acids in diet were observed; olive oil being the main fat source. It is hypothesized herein that this was due to deficiency of omega-6 derived prostaglandins, which aid ovulation.
# [2] = cited from earlier work; for effect on blood cholesterol: saturated fats of chain-length 12, 14 and 16
smiles,measurement,setting,value
"CC/C=C\C/C=C\C/C=C\CCCCCCCC(=O)O [ALA, Alpha-linolenic Acid]","symptoms (spinal burning sensation, heat in the body, delayed wound healing, vaginal yeast infection)",[1],disappeared
CC(C)Cc1ccc(C(C)C(=O)O)cc1 (stereo not shown) [Advil],"cessation of ovulation, ovulation-related pains, anovulatory menstruation",ovulation,same phenomenon was observed
CCCCCCCCCCCCCCCCCC(=O)O [Stearic acid],lowering of cholesterol,[2]; in vivo,21%
CCCCCCCCCCCC(=O)O [lauric acid],effect on blood cholesterol,[2],elevate blood cholesterol
CCCCCCCCCCCCCC(=O)O [myristic acid],effect on blood cholesterol,[2],elevate blood cholesterol
CCCCCCCC/C=C\CCCCCCCC(=O)O [oleic acid],lowering of LDL,[2]; in vivo,15%
CCCCCCCCCCCCCCCC(=O)O [palmitic acid],effect on blood cholesterol,[2],elevate blood cholesterol
